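Assay format: 96-well plates, 48-hour exposure. GI50: concentration for 50% inhibition of growth. At the TGI there is no net growth.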
Assays:
Test in all cases: NCI anticancer screen, dose series, 48 h
SK-MEL-5 melanoma = system: SK-MEL-5 melanoma
NCI/ADR-RES ovarian = system: NCI/ADR-RES ovarian
MDA-MB-231 breast = system: MDA-MB-231 breast
SR leukemia = system: SR leukemia
MCF7 breast = system: MCF7 breast
TK-10 renal = system: TK-10 renal
SNB-75 CNS = system: SNB-75 CNS
ACHN renal = system: ACHN renal
T-47D breast = system: T-47D breast
LOX IMVI melanoma = system: LOX IMVI melanoma
A498 renal = system: A498 renal
NCI-H460 lung = system: NCI-H460 lung
OVCAR-5 ovarian = system: OVCAR-5 ovarian
786-0 renal = system: 786-0 renal
RXF 393 renal = system: RXF 393 renal
OVCAR-3 ovarian = system: OVCAR-3 ovarian
OVCAR-4 ovarian = system: OVCAR-4 ovarian
BT-549 breast = system: BT-549 breast
SN12C renal = system: SN12C renal
KM12 colon = system: KM12 colon
HOP-92 NSCLC = system: HOP-92 NSCLC
OVCAR-8 ovarian = system: OVCAR-8 ovarian
NCI-H23 lung = system: NCI-H23 lung
HT29 colon = system: HT29 colon
SF-295 CNS = system: SF-295 CNS
SK-MEL-28 melanoma = system: SK-MEL-28 melanoma
DU-145 prostate = system: DU-145 prostate

SMILES: COc1ccc2c(c1)CCCN2c1c2ccccc2nc2ccccc12
- GI50 (SK-MEL-5 melanoma): 350 nM
- TGI (SK-MEL-5 melanoma): 1660 nM
- GI50 (NCI/ADR-RES ovarian): 275 nM
- TGI (NCI/ADR-RES ovarian): 771 nM
- GI50 (MDA-MB-231 breast): 665 nM
- TGI (MDA-MB-231 breast): > 100000 nM
- GI50 (SR leukemia): 383 nM
- TGI (SR leukemia): > 100000 nM
- GI50 (MCF7 breast): 316 nM
- TGI (MCF7 breast): 33200 nM
- GI50 (TK-10 renal): 3380 nM
- TGI (TK-10 renal): > 100000 nM
- GI50 (SNB-75 CNS): 200 nM
- TGI (SNB-75 CNS): 821 nM
- GI50 (ACHN renal): 611 nM
- TGI (ACHN renal): > 100000 nM
- GI50 (T-47D breast): 662 nM
- TGI (T-47D breast): > 100000 nM
- GI50 (LOX IMVI melanoma): 505 nM
- TGI (LOX IMVI melanoma): 12100 nM
- GI50 (A498 renal): 269 nM
- TGI (A498 renal): 808 nM
- GI50 (NCI-H460 lung): 358 nM
- TGI (NCI-H460 lung): > 100000 nM
- GI50 (OVCAR-5 ovarian): 544 nM
- TGI (OVCAR-5 ovarian): > 100000 nM
- GI50 (786-0 renal): 549 nM
- TGI (786-0 renal): 9300 nM
- GI50 (RXF 393 renal): 270 nM
- TGI (RXF 393 renal): 786 nM
- GI50 (OVCAR-3 ovarian): 275 nM
- TGI (OVCAR-3 ovarian): 750 nM
- GI50 (OVCAR-4 ovarian): 812 nM
- TGI (OVCAR-4 ovarian): > 100000 nM
- GI50 (BT-549 breast): 490 nM
- TGI (BT-549 breast): 6280 nM
- GI50 (SN12C renal): 730 nM
- TGI (SN12C renal): > 100000 nM
- GI50 (KM12 colon): 386 nM
- TGI (KM12 colon): 15600 nM
- GI50 (HOP-92 NSCLC): 683 nM
- TGI (HOP-92 NSCLC): 6460 nM
- GI50 (OVCAR-8 ovarian): 481 nM
- TGI (OVCAR-8 ovarian): > 100000 nM
- GI50 (NCI-H23 lung): 356 nM
- TGI (NCI-H23 lung): 5480 nM
- GI50 (HT29 colon): 360 nM
- TGI (HT29 colon): > 100000 nM
- GI50 (SF-295 CNS): 281 nM
- TGI (SF-295 CNS): > 100000 nM
- GI50 (SK-MEL-28 melanoma): 878 nM
- TGI (SK-MEL-28 melanoma): > 100000 nM
- GI50 (DU-145 prostate): 380 nM
- TGI (DU-145 prostate): > 100000 nM
